The results in this text go back to patent publication US5091403A, “Sulfinyl imidazole derivatives and antiulcer agents containing the same” (Nippon Chemiphar Co., Ltd., priority 1989, dated 1992).

Read-outs that look alike come from different tables or passages of the source. Where only a bound is given, the exact number is not on record here.

As usually defined, the IC50 is the point on the concentration scale where inhibition reaches its midpoint.

Series [1] deals with T1, H^+ +K^+ ATPase (Oryctolagus cuniculus, UniProt P27112).
T1 construct: a rabbit gastric mucosa were isolated; from tissue; host or cells: rabbit gastric mucosa; vesicles from a discontinuous Ficoll gradient
T1 sequence (P27112 whole entry): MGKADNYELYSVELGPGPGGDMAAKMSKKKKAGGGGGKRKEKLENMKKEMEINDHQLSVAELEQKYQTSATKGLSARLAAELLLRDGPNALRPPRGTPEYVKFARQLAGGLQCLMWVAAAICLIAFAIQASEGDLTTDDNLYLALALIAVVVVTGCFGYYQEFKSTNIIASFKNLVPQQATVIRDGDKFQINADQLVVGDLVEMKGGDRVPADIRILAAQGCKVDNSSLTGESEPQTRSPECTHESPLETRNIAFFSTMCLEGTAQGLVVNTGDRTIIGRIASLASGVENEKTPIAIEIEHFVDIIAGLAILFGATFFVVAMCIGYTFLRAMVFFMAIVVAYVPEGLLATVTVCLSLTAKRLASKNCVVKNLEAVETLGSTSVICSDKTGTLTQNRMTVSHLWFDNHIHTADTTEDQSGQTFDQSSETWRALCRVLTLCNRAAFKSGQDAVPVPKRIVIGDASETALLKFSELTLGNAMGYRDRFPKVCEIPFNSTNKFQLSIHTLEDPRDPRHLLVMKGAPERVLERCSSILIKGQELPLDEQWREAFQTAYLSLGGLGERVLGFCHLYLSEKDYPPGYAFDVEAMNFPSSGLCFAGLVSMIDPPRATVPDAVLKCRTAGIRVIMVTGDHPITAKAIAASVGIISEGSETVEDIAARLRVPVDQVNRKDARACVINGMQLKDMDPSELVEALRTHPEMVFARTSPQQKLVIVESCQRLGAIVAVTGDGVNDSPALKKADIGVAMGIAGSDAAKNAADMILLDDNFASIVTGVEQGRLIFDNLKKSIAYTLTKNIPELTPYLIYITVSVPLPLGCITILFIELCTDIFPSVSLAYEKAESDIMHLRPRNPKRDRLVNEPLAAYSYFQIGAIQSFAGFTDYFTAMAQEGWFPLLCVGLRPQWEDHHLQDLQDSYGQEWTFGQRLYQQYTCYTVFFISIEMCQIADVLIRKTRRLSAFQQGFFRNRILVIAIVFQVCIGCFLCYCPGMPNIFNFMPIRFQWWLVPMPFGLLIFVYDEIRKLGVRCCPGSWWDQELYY
T1 sequence (P18597 whole entry partner): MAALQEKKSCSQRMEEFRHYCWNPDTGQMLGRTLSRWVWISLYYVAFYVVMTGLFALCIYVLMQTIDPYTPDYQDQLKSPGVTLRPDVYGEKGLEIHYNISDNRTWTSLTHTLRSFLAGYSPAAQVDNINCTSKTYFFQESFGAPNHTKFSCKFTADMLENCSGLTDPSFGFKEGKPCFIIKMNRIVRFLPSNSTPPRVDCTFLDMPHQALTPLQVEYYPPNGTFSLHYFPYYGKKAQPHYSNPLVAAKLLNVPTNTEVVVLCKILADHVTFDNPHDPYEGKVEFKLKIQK
Description: H^+ +K^+ ATPase Inhibitory Effects (Test 1). Type of series: biochemical, rabbit. The settings on record: 2 × 10^-4 M test compound; incubation at pH 6.0, 25 min, room temperature; read-out: value of H^+ +K^+ ATPase inhibitory action. As to the method: Following the method of Forte et al (J. Applied Physiol., 32, 714.717 (1972)), a rabbit gastric mucosa were isolated. A vesicle containing H^+ +K^+ ATPase was prepared by centrifuging the cells in Ficoll of discontinuous density gradient according to G. Saccomani et al (Biochim. Biophys. Acta, 465. 311-330 (1977)). After the enzyme was incubated at room temperature for 25 min. in 0.5 ml of a solution which contained 5 mM of an imidazole buffer (pH 6.0) and 2 × 10^-4 M of 2-[2-(2-methoxyethylamino)benzylsulfinyl] imidazole (the compound of Example 1; the test compound), the mixture was heated to 37° C. The mixture was then allowed to stand for further 5 min. To the mixture was added 0.5 ml of a solution which contained 4 mM of magnesium chloride, 80 mM of an imidazole buffer (pH 7.4), 20 mM of potassium chloride and 4 mM of ATP. […] The inorganic phosphorus liberated was quantitatively determined by the method proposed by Taussky and Shorr (J. Biol. Chem., 202, 675-685 (1953)).
(§1) The above procedure was repeated except for not using potassium chloride to determine […] in the absence of potassium chloride. The desired K^+ -dependent ATPase activity was calculated by subtracting the ATPase activity value determined in the absence of KCl from the ATPase activity value determined in the presence of KCl.

The target in series [2] is T1, H^+ +K^+ ATPase. The series is described as follows: H^+ +K^+ ATPase Inhibitory Effects (Test 2). The class given is biochemical, rabbit. The settings on record: read-out: H^+ + K^+ ATPase inhibitory action IC50. Here is the method:
Following the method of Forte et al (J. Applied Physiol., 32, 714.717 (1972)), a rabbit gastric mucosa were isolated. A vesicle containing H^+ +K^+ ATPase was prepared by centrifuging the cells in Ficoll of discontinuous density gradient according to G. Saccomani et al (Biochim. Biophys. Acta, 465. 311-330 (1977)). After the enzyme was incubated at room temperature for 25 min. in 0.5 ml of a solution which contained 5 mM of an imidazole buffer (pH 6.0) and 2 × 10^-4 M of 2-[2-(2-methoxyethylamino)benzylsulfinyl] imidazole (the compound of Example 1; the test compound), the mixture was heated to 37° C. The mixture was then allowed to stand for further 5 min. To the mixture was added 0.5 ml of a solution which contained 4 mM of magnesium chloride, 80 mM of an imidazole buffer (pH 7.4), 20 mM of potassium chloride and 4 mM of ATP. The resulting mixture was reacted at 37° C. for 15 min. and 1 ml of 24 % trichloroacetic acid was then added to terminate the reaction. The inorganic phosphorus liberated was quantitatively determined by the method proposed by Taussky and Shorr (J. Biol. Chem., 202, 675-685 (1953)).
as §1
the enzyme was prepared in the same manner described in the above Test 1. After the enzyme was incubated at room temperature for 25 min. in 0.5 ml of a solution which contained 5 mM of an imidazole buffer (pH 6.0 or pH 7.4) and various concentrations of test compound, the mixture was heated to 37° C. The mixture was then allowed to stand for further 5 min. The value of H^+ +K^+ ATPase inhibitory action of each test compound was determined int he same manner described in the above Test 1.

Series [3] concerns secretion of gastric acid. The series is described as follows: Inhibitory action against the secretion of gastric acid (Test I), pylorus-ligated rats. Type of series: in vivo, rat (male Donryu). The following applies: intraduodenally, 4 hours, vs vehicle control. As to the method:
Male Donryu rats having a body weight of 200 to 250 g were fasted (while allowing free access to water) for 24 hrs. in accordance with the conventional method [Shay, H. et al, Gastroenterology, 5, 43.61 (1945)]. Under ether anesthesia the pylorus was ligated and 2-[2-(2-methoxyethylamino)benzylsulfinyl] imidazole (the compound of Example 1; the test compound) was administered intraduodenally. Four hours later, each rat was killed and the stomach was removed to collect the gastric juice. The inhibitory action was determined by comparing the acid output which was determined by titration to pH 7.0 with 0.1.N sodium hydroxide by means of an automatic titrator, with the corresponding value of a control rat prepared in the same manner except that a vehicle alone was administered.

For series [4], the system named is secretion of gastric acid. Description: Inhibitory action against the secretion of gastric acid (Test II), Heidenhain pouch dogs, histamine, intravenous. The class given is in vivo, dog (male beagle). The following applies: 3 mg/kg, intravenously, one hour after initiation of histamine; 30 min post-drug vs pre-drug. Here is the method: (§2) Heidenhain pouch dogs produced from male beagle dogs were fasted. To the dogs were then administered intra venously histamine hydrochloride (gastric juice secretion inducing agent) continuously at a dose of 160 μg/kg/hr. The gastric juice was collected at an interval of 15 min. to measure the amount of gastric juice and acid output to determine an acid secretion amount (mEq/15 min).
The test compound was intravenously administered to the dogs at one hour after the initiation of histamine ad ministration.
The inhibitory action was determined by comparing the acid secretion amount between pre-drug value (just before drug administration) and post-drug value (30 min. after drug administration).

In series [5] the test system is secretion of gastric acid. Description: Inhibitory action against the secretion of gastric acid (Test II, other experiment), Heidenhain pouch dogs, histamine, oral. The class given is in vivo, dog (male beagle). The following applies: orally, 2 hours before initiation of histamine, vs vehicle control dog. As to the method:
as §2
At the other experiment, the test compounds mere administrated orally 2 hours before the initiation of histamine administration, and the inhibitory action was determined by comparing the acid secretion amount wit the corresponding amount of a control dog prepared in the same manner except that a vehicle alone was administered.

The nature of series [6]: Acute toxicity test. Type of series: in vivo, rat (male SD). The settings on record: orally, observed for 2 days. An excerpt: Male SD rats having a body weight of about 190 g were orally administered with compound of Example 8. The rats were then observed for 2 days.

As for `COCCNc1ccccc1C[S+]([O-])c1ncc[nH]1` (stereo not shown) [Example 1, 2-[2-(2-methoxyethylamino)benzylsulfinyl]imidazole], the inhibition at 200 µM in series [1] is 73.1%. The IC50 in series [2] (pH 6.0) is 43 µM; in series [2] (pH 7.4) it was 180 µM. Further, the “inhibitory action (acid output)” value is 75.9% in series [3] (10 mg/kg) and 94.5% in series [3] (30 mg/kg). For the same molecule, the “Suppressive action (acid secretion amount)” value (“Suppressive action” for short) in series [4] is on record as 89%.
On to `CC(C)OCCNc1ccccc1C[S+]([O-])c1ncc[nH]1` (stereo not shown) [Example 2, 2-[2-(2-isopropoxyethylamino)benzylsulfinyl]imidazole], for which the figures for the IC50 in series [2] (pH 6.0) and in series [2] (pH 7.4) were 46 µM and 190 µM, respectively. Besides, the “Suppressive action” value in series [4] is 97%.
On to `COCCNc1ccc(C)cc1C[S+]([O-])c1ncc[nH]1` (stereo not shown) [Example 3, 2-[2-(2-methoxyethylamino)-5-methylbenzylsulfinyl]imidazole], for which the IC50 in series [2] (pH 6.0) was 25 µM; in series [2] (pH 7.4) it was greater than 300 µM. Besides, the “Suppressive action” value amounted to 85% in series [4] and 100% in series [5].
As for `COCCNc1cccc(C)c1C[S+]([O-])c1ncc[nH]1` (stereo not shown) [Example 4, 2-[2-(2-methoxyethylamino)-6-methylbenzylsulfinyl]imidazole], the IC50 in series [2] (pH 6.0) worked out at 4.4 µM; in series [2] (pH 7.4) it was 26 µM. For the same molecule, the “Suppressive action” value in series [4] was 89%.
`CCOCCNc1ccccc1C[S+]([O-])c1ncc[nH]1` (stereo not shown) [Example 5, 2-[2-(2-ethoxyethylamino)benzylsulfinyl]imidazole]: the results for the IC50 in series [2] (pH 6.0) and in series [2] (pH 7.4) were 22 µM and 53 µM, respectively. In addition, the “Suppressive action” value in series [4] stood at 98%.
The matching figures for `COCCCNc1ccccc1C[S+]([O-])c1ncc[nH]1` (stereo not shown) [Example 6, 2-[2-(3-methoxypropylamino)benzylsulfinyl]imidazole]: 13 µM, 60 µM and 92%.
For `CCOCCNc1ccc(C)cc1C[S+]([O-])c1ncc[nH]1` (stereo not shown) [Example 7, 2-[2-(2-ethoxyethylamino)-5-methylbenzylsulfinyl] imidazole], the IC50 in series [2] (pH 6.0) was found to be 18 µM; in series [2] (pH 7.4) it was 94 µM.
`COCCNc1cc(C)c(OC)c(C)c1C[S+]([O-])c1ncc[nH]1` (stereo not shown) [Example 8, 2-[4,6-dimethyl-5-methoxy-2-(2-methoxyethylamino)benzylsulfinyl]imidazole]: the IC50 in series [2] (pH 6.0) is 0.46 µM; in series [2] (pH 7.4), 11 µM. In addition, in series [5], the “Suppressive action” value was determined as 100%. In addition, the MLD in series [6] is ≥ 1,000 mg/kg.
